Values of other authors, collected in US20240010628A1, “METHODS OF MANUFACTURE OF R-MDMA” (Mind Medicine, Inc., priority 2022, published 2024).

How the values were obtained:
[1] = tested on: parkinsonian animal model
[2] = in vivo
5-HT2A receptors = 5-HT2A receptors (Homo sapiens, UniProt P28223)
SERT = SERT (Homo sapiens, UniProt P31645)
DAT = DAT (Homo sapiens, UniProt Q01959)
Chain of DAT (Q01959 whole entry, species assumed): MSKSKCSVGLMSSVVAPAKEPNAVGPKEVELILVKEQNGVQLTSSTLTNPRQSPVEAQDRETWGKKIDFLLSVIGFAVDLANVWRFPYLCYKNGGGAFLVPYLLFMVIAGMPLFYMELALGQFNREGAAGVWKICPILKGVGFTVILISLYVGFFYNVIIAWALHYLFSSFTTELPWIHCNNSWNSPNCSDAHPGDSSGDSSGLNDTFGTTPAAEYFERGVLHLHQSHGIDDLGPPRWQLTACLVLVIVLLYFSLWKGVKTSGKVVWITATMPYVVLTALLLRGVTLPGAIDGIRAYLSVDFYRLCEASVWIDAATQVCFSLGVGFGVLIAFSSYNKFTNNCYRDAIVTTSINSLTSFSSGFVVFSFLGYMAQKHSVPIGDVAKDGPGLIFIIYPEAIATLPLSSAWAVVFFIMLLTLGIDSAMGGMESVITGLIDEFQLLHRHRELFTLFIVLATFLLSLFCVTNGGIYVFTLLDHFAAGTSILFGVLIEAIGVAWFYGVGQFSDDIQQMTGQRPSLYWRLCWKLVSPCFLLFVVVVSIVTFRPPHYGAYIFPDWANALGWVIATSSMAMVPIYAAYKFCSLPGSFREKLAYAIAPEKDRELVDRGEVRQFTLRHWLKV

Chain of SERT (P31645 whole entry, species assumed): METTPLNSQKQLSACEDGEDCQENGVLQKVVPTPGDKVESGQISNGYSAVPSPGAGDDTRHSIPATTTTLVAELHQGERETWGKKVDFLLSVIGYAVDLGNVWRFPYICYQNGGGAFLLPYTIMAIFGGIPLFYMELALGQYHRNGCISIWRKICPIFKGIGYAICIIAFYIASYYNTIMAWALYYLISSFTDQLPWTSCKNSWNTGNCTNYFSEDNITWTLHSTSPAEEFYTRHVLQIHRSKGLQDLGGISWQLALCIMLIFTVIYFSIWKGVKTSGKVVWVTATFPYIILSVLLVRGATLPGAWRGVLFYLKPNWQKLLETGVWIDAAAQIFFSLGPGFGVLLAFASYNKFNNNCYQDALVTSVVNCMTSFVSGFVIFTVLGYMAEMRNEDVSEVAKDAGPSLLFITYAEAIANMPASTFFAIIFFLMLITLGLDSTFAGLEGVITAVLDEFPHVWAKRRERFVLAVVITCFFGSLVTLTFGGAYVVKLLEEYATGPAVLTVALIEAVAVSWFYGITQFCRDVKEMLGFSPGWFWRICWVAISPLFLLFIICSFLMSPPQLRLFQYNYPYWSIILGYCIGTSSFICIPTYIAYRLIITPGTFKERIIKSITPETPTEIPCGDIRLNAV
Chain of 5-HT2A receptors (P28223 whole entry): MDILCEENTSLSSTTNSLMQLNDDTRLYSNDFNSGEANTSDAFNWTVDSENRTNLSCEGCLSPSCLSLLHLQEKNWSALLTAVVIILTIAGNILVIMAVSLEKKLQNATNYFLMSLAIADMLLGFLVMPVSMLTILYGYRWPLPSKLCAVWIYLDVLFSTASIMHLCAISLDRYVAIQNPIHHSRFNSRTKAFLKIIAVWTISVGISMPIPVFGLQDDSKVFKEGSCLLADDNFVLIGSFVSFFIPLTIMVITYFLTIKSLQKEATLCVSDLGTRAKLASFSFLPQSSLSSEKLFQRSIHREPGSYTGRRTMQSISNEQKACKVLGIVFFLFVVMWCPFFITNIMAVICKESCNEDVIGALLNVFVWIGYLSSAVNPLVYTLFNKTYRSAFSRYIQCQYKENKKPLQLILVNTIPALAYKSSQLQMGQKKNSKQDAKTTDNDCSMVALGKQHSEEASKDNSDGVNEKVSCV

Row | Compound | severity of peak-dose dyskinesia / dyskinesia [1] | total duration of ON-time [1] | duration of good ON-time [1] | hyperthermia [2] | selectivity for 5-HT2A receptors (5-HT2A receptors) | efficacy as a releaser of dopamine (dopamine) | affinity for SERT (SERT) | affinity for DAT (DAT)
1 | CNC(C)Cc1ccc2c(c1)OCO2 (racemic) [racemic MDMA, 3,4-Methylenedioxymethamphetamine, reference compound] | reducing dyskinesia | extending ON-time |  |  |  |  |  | 
2 | CN[C@H](C)Cc1ccc2c(c1)OCO2 [R-MDMA, (R)-1-(benzo[d][1,3]dioxol-5-yl)-N-methylpropan-2-amine] | decreased |  | increased | does not produce hyperthermia | selective compound for 5-HT2A receptors | low efficacy |  | 
3 | CN[C@@H](C)Cc1ccc2c(c1)OCO2 [S-MDMA, (S)-1-(benzo[d][1,3]dioxol-5-yl)-N-methylpropan-2-amine] | exacerbated | extended |  |  |  |  | high affinity | moderate affinity
